Assay results taken from patent publication US8987294B2, “Small molecule inhibitors of the α4-paxillin interaction” (The Regents of the University of California, priority 2009, dated 2015).

Key:
[1] = test system: Jurkat T cells; test: Spreading assay, Jurkat T cells on CS-1; assay type: cell-based; conditions: 180 minutes after plating on CS-1
Description: (§1) Cell spreading was performed as described (11, 34). Briefly, CHO cells or Jurkat cells resuspended in Dulbecco's modified Eagle's medium or RPMI 1640, respectively, containing 0.5% fetal bovine serum and 0.2% BSA were plated on coverslips coated with 3 μg/ml GST-CS-1 in 12 well plates in the presence or absence of the small molecule inhibitor. […] The cell area was measured and analyzed using the ImageJ software. At least three independent experiments were performed and in each experiment at least 30 cells were analyzed.

[2] = target: T1, interaction of leupaxin with the focal adhesion targeting sequence of pp125^FAK (FAT) (Homo sapiens, UniProt O60711); test: ELISA, leupaxin binding to immobilized FAT; conditions: concentrations up to 100 μM
T1 construct: Recombinant 6×His-FAT, the focal adhesion targeting domain of pp125^FAK; 6xHis (N); made in house; host or cells: E. coli BL21(DE3)pLysS
T1 sequence (O60711 1-386): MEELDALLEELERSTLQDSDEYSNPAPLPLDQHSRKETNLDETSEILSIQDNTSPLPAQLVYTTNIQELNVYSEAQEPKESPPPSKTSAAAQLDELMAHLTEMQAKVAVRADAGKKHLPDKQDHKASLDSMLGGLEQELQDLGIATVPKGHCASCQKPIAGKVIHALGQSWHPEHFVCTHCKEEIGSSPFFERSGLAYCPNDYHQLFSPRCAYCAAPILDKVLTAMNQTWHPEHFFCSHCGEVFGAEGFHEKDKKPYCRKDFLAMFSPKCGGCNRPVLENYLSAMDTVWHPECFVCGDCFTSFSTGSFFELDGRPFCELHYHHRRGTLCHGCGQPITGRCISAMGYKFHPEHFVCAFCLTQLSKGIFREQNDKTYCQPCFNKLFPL
Description: (§2) Thermo Electron High Binding 96 or 384 well plates were coated with 1 μg/ml neutravidin (Pierce) in 0.05M NaHCO3 pH 9.5 over night at 4° C. After blocking with 1% heat inactivated BSA in PBS for 1 hour at room temperature, plates were incubated with 1 μg/ml of recombinant αIIb-tail or α4-tail FAT or Git-1 in 1% BSA in PBS for one hour at room temperature. Plates were washed twice with 0.2% Tween in PBS to remove unbound protein and incubated with 10 μg/ml HA-tagged leupaxin or paxillin in 0.2% Tween/1% BSA in PBS in the presence or absence of small molecule compounds (5 mM DMSO stock solutions). […] Plates were washed twice and bound leupaxin or paxillin was detected by incubating with the first antibody (12CA5 ascites, 1:10,000 in 0.2% Tween/1% BSA in PBS) for 1 hour at room temperature and then with the secondary antibody (HPR-conjugated anti mouse, Biosource, 1:1,000 in 0.2% Tween, 1% BSA, PBS for 1 hour at room temperature. Binding was quantified after addition of ECL solution on a Victor luminescence plate reader. 0% inhibition control was measured with leupaxin and no compound and 100% inhibition control (background) was measured with no leupaxin and no compound. Each well was duplicated and percent inhibition was averaged. (FIG. 1A)

[3] = test system: Jurkat T cells; test: Cytotoxicity assay (CellTiter 96 Aqueous One Solution); assay type: cell-based; conditions: concentrations up to 100 μM for 24 h
Description: The cytotoxicity effect of compounds on cultivated cells was determined using the CellTiter 96® Aqueous One Solution Cell Proliferation Assay (Promega, Madison, Wis.) according to the manufacturer's guidelines.

[4] = test system: C57B1/6 mice; test: Thioglycollate-induced peritonitis; assay type: in vivo
Description: Male C57B1/6 mice 5-6 weeks old were injected intraperitoneally with 1 ml sterile 4% (wt/vol) thioglycollate (Sigma-Aldrich). Mice were injected with 16.5 mg/kg 6-B345TTQ, 6-234TTQ or the equal volume of vehicle only every 8-12 hours. At various time points after injection, mice were sacrificed and subjected to peritoneal lavage with 4 ml PBS containing 5 mM EDTA and 1% BSA. Total leukocytes in lavage samples were enumerated with a hemocytometer. Cells (1×10^5) were attached to glass slides with a Cytospin4 instrument (ThermoSharidon) and stained with modified Wright-Giemsa stain. Differential cell counts were performed on 5 individual fields, each containing 100 cells by light microscopy.

[5] = target: T2, interaction of paxillin with α4-integrin (Homo sapiens, UniProt P49023); test: ELISA, paxillin binding to immobilized α4 tail; conditions: 10 μg/ml paxillin; read-out: IC50, inhibition of paxillin binding to α4-integrin
T2 construct: 6xHis (N); biotin acceptor peptide […]; made in house; host or cells: Escherichia coli
T2 sequence (P49023 whole entry): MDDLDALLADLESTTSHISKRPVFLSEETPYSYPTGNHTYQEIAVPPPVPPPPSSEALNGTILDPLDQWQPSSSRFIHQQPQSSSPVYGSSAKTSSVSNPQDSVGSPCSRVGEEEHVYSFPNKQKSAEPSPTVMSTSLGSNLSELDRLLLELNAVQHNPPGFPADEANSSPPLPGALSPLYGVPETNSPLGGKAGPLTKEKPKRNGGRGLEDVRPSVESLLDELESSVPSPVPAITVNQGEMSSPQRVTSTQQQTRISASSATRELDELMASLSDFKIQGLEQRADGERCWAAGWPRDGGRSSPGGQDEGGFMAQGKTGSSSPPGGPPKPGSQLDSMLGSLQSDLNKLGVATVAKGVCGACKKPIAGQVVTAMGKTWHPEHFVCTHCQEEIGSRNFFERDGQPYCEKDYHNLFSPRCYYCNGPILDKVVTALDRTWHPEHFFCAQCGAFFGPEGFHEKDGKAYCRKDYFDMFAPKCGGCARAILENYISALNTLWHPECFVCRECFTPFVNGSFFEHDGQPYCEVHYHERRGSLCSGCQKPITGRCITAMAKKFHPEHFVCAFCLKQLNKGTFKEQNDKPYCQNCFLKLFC
Description: as §2

[6] = test system: THP-1 cells; test: Modified Boyden chamber migration, THP-1 cells on CS-1; assay type: cell-based; conditions: Homo sapiens, 3 hours, read-out: inhibition of monocyte migration
Description: (§3) Cell migration was assayed in a modified Boyden chamber assay system as described previously (8). For Jurkat T cell migration, transwell (Costar) polycarbonate membranes containing 3-μm pores were coated with 10 μg/ml CS-1, an α4 integrin binding fragment of fibronectin or 20 μg/ml ICAM in 0.1M NaHCO3, pH 8.0 overnight at 4° C. Membranes were blocked with 2% BSA in PBS for 30 minutes at room temperature. 2.0×10^5 Jurkat T cells in RPMI 1640 with 10% fetal bovine serum were added to the top chamber. Stromal-derived factor-1α (SDF-1α, R&D Systems, Minneapolis, Minn.) at a final concentration of 15 ng/ml in RPMI 1640 with 10% fetal bovine serum was added to the bottom chamber. Cells were allowed to migrate for 5 hours at 37° C. Cells in the bottom chamber were enumerated with a hemacytometer. Small molecule inhibitors were added to the top and bottom chamber in the indicated concentrations.
THP-1 cells were cultured in RPMI1640 containing 0.1% fetal bovine serum for 16 hours before 1×10^6 cells were added to the top chamber of transwells with CS1-coated membranes that contained 5-μm pores and allowed to migrate for 3 hours towards RPMI containing 0.1% fetal bovine serum.

[7] = test system: Jurkat T cells; test: Modified Boyden chamber migration, Jurkat T cells on ICAM-1 (αLβ2-mediated); assay type: cell-based
Description: as §3

[8] = test system: Jurkat T cells; test: Modified Boyden chamber migration, Jurkat T cells on CS-1; assay type: cell-based; conditions: Homo sapiens, 5 hours towards SDF-1α, read-out: inhibition of T-cell migration
Description: as §3

[9] = test system: CHO-S998A cells; test: Spreading assay, CHO-S998A cells on CS-1; assay type: cell-based, Chinese Hamster; conditions: CS-1 coated cover slips, 45 minutes
Description: as §1

[10] = target: interaction of GIT-1 with paxillin (Homo sapiens, UniProt P49023); test: ELISA, paxillin binding to immobilized Git-1; conditions: read-out: IC50, inhibition of interaction of GIT-1 with paxillin
Sequence of interaction of GIT-1 with paxillin (P49023 whole entry): as above
Description: as §2

[11] = target: T3, native paxillin and α4-integrin (Homo sapiens, UniProt P49023); test: Coimmunoprecipitation of α4 with paxillin from Jurkat T cells; assay type: binding; conditions: anti-biotin blot
T3 construct: endogenous in cells; host or cells: Jurkat T cells
T3 sequence (P49023 whole entry): as above
Description: For endogenous Coimmunoprecipitation experiments, Jurkat T-cells were washed in ice-cold PBS and incubated in 1.6 mM Sulfo-NHS-Biotin (Pierce, Chemical Co.) for 30 minutes at room temperature. Excess biotin was quenched and washed from the cells with PBS/Glycine. Cell lysates were then prepared with lysis buffer containing 20 mM Tris, pH 7.4, 150 mM NaCl, 10 mM EDTA, 1% Triton X-100, 0.05% Tween 20 and a protease inhibitor cocktail (Roche Diagnostics Corp.). Lysate containing 200 μg total cell protein was immunoprecipitated using 2 μg rabbit anti paxillin (RB-4358). Immunoprecipitated proteins were separated by SDS-PAGE (8% Bis-Tris, denaturating and reducing) and transferred to nitrocellulose membranes. Precipitated, biotinylated proteins were detected using HRP-Streptavidin (1:10,000).

[12] = target: T4, interaction of GIT-1 with leupaxin (Homo sapiens, UniProt O60711); test: ELISA, leupaxin binding to immobilized Git-1; conditions: read-out: IC50, inhibition of interaction of GIT-1 with leupaxin
T4 sequence (O60711 1-386): T1 sequence (O60711 1-386)
Description: as §2

[13] = test system: CHO wildtype cells that do not express α4; test: Spreading assay, CHO wildtype cells on fibronectin; assay type: cell-based, Chinese Hamster; conditions: plated on fibronectin; data not shown
Description: Cell spreading was performed as described (11, 34). Briefly, CHO cells or Jurkat cells resuspended in Dulbecco's modified Eagle's medium or RPMI 1640, respectively, […] presence or absence of the small molecule inhibitor. […] The cell area was measured and analyzed using the ImageJ software. At least three independent experiments were performed and in each experiment at least 30 cells were analyzed.

[14] = target: T5, interaction of FAT with paxillin (Homo sapiens, UniProt P49023); test: ELISA, paxillin binding to immobilized FAT
T5 construct: Recombinant 6×His-FAT, the focal adhesion targeting domain of pp125^FAK; 6xHis (N); made in house; host or cells: E. coli BL21(DE3)pLysS
T5 sequence (P49023 whole entry, the tested form may be a part): as the sequence (P49023 whole entry) above
Description: as §2

[15] = target: T6, interaction of leupaxin with α4-integrin (Homo sapiens, UniProt O60711); test: ELISA, leupaxin binding to immobilized α4 tail
T6 construct: Biotinylated α4-integrin cytoplasmic tail was coated to the plates; 6xHis (N); biotin acceptor peptide […]; made in house; host or cells: Escherichia coli
T6 sequence (O60711 1-386): T1 sequence (O60711 1-386)
Description: as §2
Inhibition of the α4 leupaxin interaction was measured using the above described ELISA assay. Biotinylated α4-integrin cytoplasmic tail was coated to the plates and incubated with increasing concentrations of leupaxin in the presence of different concentrations of inhibitor or no inhibitor. The data were fitted to equations for models of competitive, non-competitive, uncompetitive of mixed inhibition using Graph Pad Prism 5.0 to test which model fits the best.

[16] = test system: Jurkat T cells expressing a mutated α4-integrin (α4(Y991A)); test: Modified Boyden chamber migration, JB4-Y991A cells; assay type: cell-based
Description: as §3

## COc1cc(C2CC(=O)Nc3c2cc(Br)c2ccccc32)cc(OC)c1OC (centres unmarked) [6-B345TTQ]
[1]
  spreading of Jurkat T cells: dose dependent increase
[2]
  effect on the binding of FAT to leupaxin: no effect
[3]
  cytotoxicity (cell viability): not cytotoxic
[4]; 16.5 mg/kg every 8-12 hours i.p., 48 hours after thioglycollate
  reduction of infiltration of peritoneal monocytes/macrophages: 50%
[4]; 16.5 mg/kg every 8-12 hours, 48 hours and 72 hours after thioglycollate
  recruitment of lymphocytes to the peritoneum: reduction was not statistically significant
[4]; 16.5 mg/kg every 8-12 hours, vs vehicle
  recruitment of neutrophils: no difference
[5]
  IC50: 10.8 µM
[6]
  inhibition at 50 µM: 52.6%
[7]
  effect on αLβ2-mediated Jurkat T cell migration on ICAM-1: not significantly reduced
[8]
  inhibition at 50 µM: 56.4%
[9]
  spreading of CHO-S998A cells: increased the spreading of CHO-S998A cells to a level comparable with CHO-S998D cells
[10]
  IC50: 2.4 µM
[11]
  amount of α4 co-immunoprecipitated with paxillin: decreased with increasing concentrations
[12]
  IC50: 25 µM
[13]
  spreading of CHO wildtype cells: not increased
[14]
  inhibition of the interaction of FAT with paxillin: did inhibit
[15]; 10 μg/ml leupaxin, read-out: IC50, inhibition of leupaxin binding to α4-integrin
  IC50: 18 µM
[15]; increasing leupaxin, various inhibitor concentrations, model fit Graph Pad Prism 5.0
  nature of inhibition of the α4 leupaxin interaction: competitive inhibitor
[15]; mixed model fit
  α-value of mixed model of inhibition: ~2.958×10^12
[16]
  residual α4-dependent migration of α4(Y991A) Jurkat T cells: not further decreased
